Patent EP4778929A1, “NOVEL TYPE I TOPOISOMERASE INHIBITOR, AND PREPARATION METHOD THEREFOR AND USE THEREOF” (priority 2023, dated 2025)
Like-named read-outs stand apart in the source and are kept apart here.

Tests used:
topoisomerase I (Topo I) = target: T1, topoisomerase I (Topo I) (Homo sapiens, UniProt P11387); test: Topo I enzyme-inhibitory activity by agarose-gel electrophoresis (plasmid relaxation); type: biochemical
T1 sequence (P11387 1-765): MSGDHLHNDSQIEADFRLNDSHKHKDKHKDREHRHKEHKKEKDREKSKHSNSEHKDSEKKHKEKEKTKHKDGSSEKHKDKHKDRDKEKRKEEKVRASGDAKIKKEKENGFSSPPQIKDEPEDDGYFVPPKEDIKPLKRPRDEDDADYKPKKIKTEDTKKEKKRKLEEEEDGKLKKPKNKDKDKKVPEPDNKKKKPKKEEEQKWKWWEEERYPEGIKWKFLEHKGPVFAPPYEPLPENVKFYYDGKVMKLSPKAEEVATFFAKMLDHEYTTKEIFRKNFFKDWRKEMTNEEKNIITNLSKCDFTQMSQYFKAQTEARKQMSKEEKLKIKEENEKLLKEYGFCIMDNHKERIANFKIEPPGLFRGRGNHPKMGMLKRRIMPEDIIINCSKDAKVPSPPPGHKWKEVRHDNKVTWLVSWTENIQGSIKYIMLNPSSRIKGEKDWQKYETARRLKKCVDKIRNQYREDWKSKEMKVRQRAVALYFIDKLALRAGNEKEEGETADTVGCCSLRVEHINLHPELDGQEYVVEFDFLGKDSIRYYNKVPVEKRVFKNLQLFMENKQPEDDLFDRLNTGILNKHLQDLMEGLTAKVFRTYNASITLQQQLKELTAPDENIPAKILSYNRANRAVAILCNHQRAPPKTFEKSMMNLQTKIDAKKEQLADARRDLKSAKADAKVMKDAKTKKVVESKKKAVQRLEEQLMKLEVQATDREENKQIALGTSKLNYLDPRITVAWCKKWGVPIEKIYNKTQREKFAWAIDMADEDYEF
How it was run: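 Supercoiled pNO1 plasmid (0.5 µg) was relaxed by Topo I (0.75 U) in 20 mM Tris-HCl pH 7.5, 200 mM NaCl, 0.25 mM EDTA, 5 % glycerol, 5 % DMSO final, for 30 min at 37 °C. Supercoiled band intensity on agarose gel was normalized to no-enzyme and vehicle controls. IC50 from a four-parameter logistic fit.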

HCT116 cells = test: Inhibition of cell proliferation by CTG (CellTiter-Glo) luminescence assay; type: cell-based; settings: Homo sapiens, HCT-116, 72 h, read-out: HCT116, IC50
How it was run: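 Nine-point 1:3 dilutions applied to HCT116 cells (2 000/well, McCoy's 5a + 10 % FBS) for 72 h at 37 °C, final DMSO 0.25 %. Viability read by CellTiter-Glo luminescence; % inhibition versus DMSO controls fitted to four-parameter logistic for IC50.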

Compound	IC50 (topoisomerase I (Topo I)) [µM]	IC50 (HCT116 cells) [µM]	IC50 (topoisomerase I (Topo I); read-out: inhibition of topoisomerase I (Topo I) enzymatic activity, IC50, 0.75 U Topo I, pNO1 plasmid, 37 °C, 30 min, compounds listed by group (Group A / Group B)) [µM]
CC[C@@]1(O)C(=O)OCc2c1cc1n(c2=O)Cc2c-1c(=O)c1cc(F)cc(C)c1n2C [Example 2, (S)-4-ethyl-8-fluoro-4-hydroxy-10,11-dimethyl-1,12-dihydro-14H-pyrano[3,4:6,7]indolizino[2,1-b]quinoline-3,6,14(4H,11H)-trione]	< 0.2	< 0.02	
CC[C@@]1(O)C(=O)OCc2c1cc1n(c2=O)Cc2c-1c(=O)c1cc(F)ccc1n2CCN(C)C1CCCC1 [Example 117]		< 0.02	0.2 to 0.5
